# Measurements as given in publication PMC2819846 (Mutation research, 2008).
# Like-named read-outs stand apart in the source and are kept apart here.
# How the values were obtained:
# [1] = tested on: DNA from Salmonella TA100; assay: Abasic sites by aldehydic-site assay in DNA of treated TA100; format: cell-based; settings: DMSO 5.9 ± 0.33
# [2] = tested on: Salmonella TA100; assay: Salmonella plate-incorporation mutagenicity assay, strain TA100; format: cell-based; settings: for Mutagenic potency, Revertants/µg ± S.E., TA100 / Mutagenicity call TA100: plate-incorporation, +S9
# [3] = tested on: Salmonella TA104; assay: Salmonella plate-incorporation mutagenicity assay, strain TA104, with S9 mix; format: cell-based; settings: for Mutagenic potency, Revertants/µg ± S.E., TA104 / Mutagenicity call TA104: plate-incorporation, +S9
# [4] = tested on: DNA from Salmonella TA100; assay: Stable DNA adducts by 32P-postlabeling in DNA of treated TA100; format: cell-based; settings: DMSO 0.024 ± 0.000
# [5] = tested on: Salmonella TA98; assay: Salmonella plate-incorporation mutagenicity assay, strain TA98, with S9 mix; format: cell-based
# [6] = tested on: strain TA100; format: cell-based, Salmonella; settings: TA100 liquid-suspension; for Percent survival: DMSO 100; for Rev/10^6 survivors: DMSO 0.8
# [7] = tested on: Salmonella; settings: cited from earlier work
# [8] = TA100 +S9, Test 1, 2 µg/plate, zero-dose 99/110/110
# [9] = TA100 +S9, Test 1, 5 µg/plate, zero-dose 99/110/110
# [10] = TA100 +S9, Test 1, 10 µg/plate, zero-dose 99/110/110
# [11] = TA100 +S9, Test 1, 20 µg/plate, zero-dose 99/110/110
# [12] = TA100 +S9, Test 1, 40 µg/plate, zero-dose 99/110/110
# [13] = TA100 +S9, Test 1, 80 µg/plate, zero-dose 99/110/110
# [14] = TA100 +S9, Test 2, 0.5 µg/plate, zero-dose 84/78/80
# [15] = TA100 +S9, Test 2, 1 µg/plate, zero-dose 84/78/80
# [16] = TA100 +S9, Test 2, 5 µg/plate, zero-dose 84/78/80
# [17] = TA100 +S9, Test 3, 0.5 µg/plate, zero-dose 127/118/125
# [18] = TA100 +S9, Test 3, 1 µg/plate, zero-dose 127/118/125
# [19] = TA100 +S9, Test 3, 5 µg/plate, zero-dose 127/118/125
# [20] = TA104 +S9, Test 3, 0.5 µg/plate, zero-dose 402/395/336
# [21] = TA104 +S9, Test 3, 1 µg/plate, zero-dose 402/395/336
# [22] = TA104 +S9, Test 3, 5 µg/plate, zero-dose 402/395/336
# [23] = TA98 +S9, Test 1, 2 µg/plate, zero-dose 33/40/39
# [24] = TA98 +S9, Test 1, 5 µg/plate, zero-dose 33/40/39
# [25] = TA98 +S9, Test 1, 10 µg/plate, zero-dose 33/40/39
# [26] = TA98 +S9, Test 1, 20 µg/plate, zero-dose 33/40/39
# [27] = TA98 +S9, Test 1, 40 µg/plate, zero-dose 33/40/39
# [28] = TA98 +S9, Test 1, 80 µg/plate, zero-dose 33/40/39
# [29] = TA98 +S9, Test 2, 5 µg/plate, zero-dose 43/41/30
# [30] = TA98 +S9, Test 3, 5 µg/plate, zero-dose 49/50/50
structure (smiles),measurement,setting,value
"O[C@@H]1C=Cc2c(ccc3ccc4ccccc4c23)[C@H]1O (racemic) [B[c]P 3,4-diol, (± )-trans-3,4-Dihydrobenzo[c]phenanthrene 3,4-diol]",Abasic sites/10^5 nucleotides ± S.E,"[1]; TA100, 2 µg/ml",4.2 ± 0.16 sites/10^5 nucleotides
same,Abasic sites/10^5 nucleotides ± S.E,"[1]; TA100, 5 µg/ml",5.3 ± 0.27 sites/10^5 nucleotides
same,Rev/plate,[2]; [8],694 rev/plate
same,Rev/plate,[2]; [9],1002 rev/plate
same,Rev/plate,[2]; [10],1067 rev/plate
same,Rev/plate,[2]; [11],942 rev/plate
same,Rev/plate,[2]; [12],381 rev/plate
same,Rev/plate,[2]; [13],100 rev/plate
same,Rev/plate,[2]; [14],151/162
same,Rev/plate,[2]; [15],244/241
same,Rev/plate,"[2]; TA100 +S9, Test 2, 2.5 µg/plate, zero-dose 84/78/80",533/604
same,Rev/plate,[2]; [16],598/153
same,Rev/plate,[2]; [17],335/357
same,Rev/plate,[2]; [18],474/494
same,Rev/plate,"[2]; TA100 +S9, Test 3, 2.5 µg/plate, zero-dose 127/118/125",848/945
same,Rev/plate,[2]; [19],1216/1218
same,Rev/plate,"[2]; TA100 +S9, Test 4, 0.5 µg/plate, zero-dose 112/140/115",328/304
same,Rev/plate,"[2]; TA100 +S9, Test 4, 1 µg/plate, zero-dose 112/140/115",613/577
same,Rev/plate,"[2]; TA100 +S9, Test 4, 2.5 µg/plate, zero-dose 112/140/115",938/941
same,Rev/plate,"[2]; TA100 +S9, Test 4, 5 µg/plate, zero-dose 112/140/115",1117/1140
same,"Mutagenic potency, Revertants/µg ± S.E., TA100",[2],268 ± 46 rev/µg
same,Mutagenicity call TA100,[2],"(+) (Called mutagenic (+) based on showing reproducible, dose-related increases in rev/plate that reached or exceeded 2-fold relative to zero-dose controls)"
same,Rev/plate,"[3]; TA104 +S9, Test 1, 0.5 µg/plate, zero-dose 379/400/370",770/707
same,Rev/plate,"[3]; TA104 +S9, Test 1, 1 µg/plate, zero-dose 379/400/370",1007/1137
same,Rev/plate,"[3]; TA104 +S9, Test 1, 2.5 µg/plate, zero-dose 379/400/370",1618/1616
same,Rev/plate,"[3]; TA104 +S9, Test 1, 5 µg/plate, zero-dose 379/400/370",1925/2036
same,Rev/plate,[3]; [20],663/615
same,Rev/plate,[3]; [21],923/920
same,Rev/plate,"[3]; TA104 +S9, Test 3, 2.5 µg/plate, zero-dose 402/395/336",1368/1509
same,Rev/plate,[3]; [22],1781/1775
same,Rev/plate,"[3]; TA104 +S9, Test 4, 0.5 µg/plate, zero-dose 482/455/462",655/635
same,Rev/plate,"[3]; TA104 +S9, Test 4, 1 µg/plate, zero-dose 482/455/462",913/888
same,Rev/plate,"[3]; TA104 +S9, Test 4, 2.5 µg/plate, zero-dose 482/455/462",1375/1312
same,Rev/plate,"[3]; TA104 +S9, Test 4, 5 µg/plate, zero-dose 482/455/462",1807/1818
same,"Mutagenic potency, Revertants/µg ± S.E., TA104",[3],552 ± 62 rev/µg
same,Mutagenicity call TA104,[3],"(+) (Called mutagenic (+) based on showing reproducible, dose-related increases in rev/plate that reached or exceeded 2-fold relative to zero-dose controls)"
same,Stable adducts/10^8 nucleotides ± S.E,"[4]; TA100, 2 µg/ml",5.900 ± 0.230 adducts/10^8 nucleotides
same,Stable adducts/10^8 nucleotides ± S.E,"[4]; TA100, 5 µg/ml",4.500 ± 0.034 adducts/10^8 nucleotides
same,Rev/plate,[5]; [23],47 rev/plate
same,Rev/plate,[5]; [24],100 rev/plate
same,Rev/plate,[5]; [25],120 rev/plate
same,Rev/plate,[5]; [26],226 rev/plate
same,Rev/plate,[5]; [27],303 rev/plate
same,Rev/plate,[5]; [28],417 rev/plate
same,Rev/plate,[5]; [29],120/112
same,Rev/plate,"[5]; TA98 +S9, Test 2, 10 µg/plate, zero-dose 43/41/30",180/199
same,Rev/plate,"[5]; TA98 +S9, Test 2, 20 µg/plate, zero-dose 43/41/30",310/260
same,Rev/plate,"[5]; TA98 +S9, Test 2, 40 µg/plate, zero-dose 43/41/30",460/414
same,Rev/plate,"[5]; TA98 +S9, Test 2, 80 µg/plate, zero-dose 43/41/30",492/423
same,Rev/plate,[5]; [30],145/173
same,Rev/plate,"[5]; TA98 +S9, Test 3, 10 µg/plate, zero-dose 49/50/50",238/242
same,Rev/plate,"[5]; TA98 +S9, Test 3, 20 µg/plate, zero-dose 49/50/50",350/328
same,Rev/plate,"[5]; TA98 +S9, Test 3, 40 µg/plate, zero-dose 49/50/50",458/504
same,Rev/plate,"[5]; TA98 +S9, Test 3, 80 µg/plate, zero-dose 49/50/50",509/597
same,"Mutagenic potency, Revertants/µg ± S.E., TA98","[5]; plate-incorporation, +S9",11.1 ± 3.0 rev/µg
same,Mutagenicity call TA98,"[5]; plate-incorporation, +S9","(+) (Called mutagenic (+) based on showing reproducible, dose-related increases in rev/plate that reached or exceeded 2-fold relative to zero-dose controls)"
same,Percent survival,[6]; 2 µg/ml,56%
same,Fold increase in mutant frequency relative to DMSO-treated cells,[6]; 5 µg/ml,23.4 fold
same,Rev/10^6 survivors,[6]; 5 µg/ml,18.7 Rev/10^6 survivors
same,Percent survival,[6]; 5 µg/ml,20%
same,Mutagenicity in Salmonella (early studies),[7],mutagenic
"c1ccc2c(c1)ccc1ccc3ccccc3c12 [B[c]P, Benzo[c]phenanthrene]",Abasic sites/10^5 nucleotides ± S.E,"[1]; TA100, 20 µg/ml",3.3 ± 0.12 sites/10^5 nucleotides
same,Rev/plate,[2]; [8],251 rev/plate
same,Rev/plate,[2]; [9],388 rev/plate
same,Rev/plate,[2]; [10],467 rev/plate
same,Rev/plate,[2]; [11],503 rev/plate
same,Rev/plate,[2]; [12],494 rev/plate
same,Rev/plate,[2]; [13],354 rev/plate
same,Rev/plate,[2]; [14],97/85
same,Rev/plate,[2]; [15],114/78
same,Rev/plate,"[2]; TA100 +S9, Test 2, 2 µg/plate, zero-dose 84/78/80",117/143
same,Rev/plate,[2]; [16],300/204
same,Rev/plate,[2]; [17],180/190
same,Rev/plate,[2]; [18],250/217
same,Rev/plate,"[2]; TA100 +S9, Test 3, 2 µg/plate, zero-dose 127/118/125",300/303
same,Rev/plate,[2]; [19],510/499
same,"Mutagenic potency, Revertants/µg ± S.E., TA100",[2],56.4 ± 12.1 rev/µg
same,Mutagenicity call TA100,[2],"(+) (Called mutagenic (+) based on showing reproducible, dose-related increases in rev/plate that reached or exceeded 2-fold relative to zero-dose controls)"
same,Rev/plate,"[3]; TA104 +S9, Test 2, 0.5 µg/plate, zero-dose 276/260/270",432/407
same,Rev/plate,"[3]; TA104 +S9, Test 2, 1 µg/plate, zero-dose 276/260/270",504/506
same,Rev/plate,"[3]; TA104 +S9, Test 2, 2 µg/plate, zero-dose 276/260/270",570/609
same,Rev/plate,"[3]; TA104 +S9, Test 2, 5 µg/plate, zero-dose 276/260/270",753/894
same,Rev/plate,[3]; [20],523/486
same,Rev/plate,[3]; [21],636/581
same,Rev/plate,"[3]; TA104 +S9, Test 3, 2 µg/plate, zero-dose 402/395/336",588/660
same,Rev/plate,[3]; [22],850/824
same,"Mutagenic potency, Revertants/µg ± S.E., TA104",[3],241 ± 25 rev/µg
same,Mutagenicity call TA104,[3],"(+) (Called mutagenic (+) based on showing reproducible, dose-related increases in rev/plate that reached or exceeded 2-fold relative to zero-dose controls)"
same,Stable adducts/10^8 nucleotides ± S.E,"[4]; TA100, 20 µg/ml",1.600 ± 0.040 adducts/10^8 nucleotides
same,Rev/plate,[5]; [23],37 rev/plate
same,Rev/plate,[5]; [24],43 rev/plate
same,Rev/plate,[5]; [25],57 rev/plate
same,Rev/plate,[5]; [26],60 rev/plate
same,Rev/plate,[5]; [27],50 rev/plate
same,Rev/plate,[5]; [28],35 rev/plate
same,Rev/plate,"[5]; TA98 +S9, Test 2, 0.5 µg/plate, zero-dose 43/41/30",44/36
same,Rev/plate,"[5]; TA98 +S9, Test 2, 1 µg/plate, zero-dose 43/41/30",41/35
same,Rev/plate,"[5]; TA98 +S9, Test 2, 2 µg/plate, zero-dose 43/41/30",38/37
same,Rev/plate,[5]; [29],56/50
same,Rev/plate,"[5]; TA98 +S9, Test 3, 0.5 µg/plate, zero-dose 49/50/50",49/36
same,Rev/plate,"[5]; TA98 +S9, Test 3, 1 µg/plate, zero-dose 49/50/50",52/54
same,Rev/plate,"[5]; TA98 +S9, Test 3, 2 µg/plate, zero-dose 49/50/50",60/50
same,Rev/plate,[5]; [30],87/61
same,"Mutagenic potency, Revertants/µg ± S.E., TA98","[5]; plate-incorporation, +S9",1.2 ± 1.3 rev/µg
same,Fold increase in mutant frequency relative to DMSO-treated cells,[6]; 20 µg/ml,3.9 fold
same,Rev/10^6 survivors,[6]; 20 µg/ml,3.1 Rev/10^6 survivors
same,Percent survival,[6]; 20 µg/ml,71%
same,Mutagenicity in Salmonella (early studies),[7],mutagenic
"O[C@H]1C=Cc2ccc3c(sc4ccccc43)c2[C@@H]1O [[2,1]BNT-1,2-diol]",Mutagenicity in Salmonella TA100,[7]; TA100,not mutagenic
